Test results taken from US20070264243A1, “REVERSIBLY IMMORTALIZED HEPATOCYTES AND METHODS OF USE” (priority 1999, published 2007).
Entries after “also recorded” stand apart in the source; their conditions may differ.

Tests used:
[1] = system: NKNT-3 cells; assay: MTT cytotoxicity assay; format: cell-based, human
Protocol: MTT Cytotoxicity Assays. Sensitivity of NKNT-3 cells to either 5 μM ganciclovir or G418 (500 μg/ml) was confirmed by 3-(4,5-dimethyl-2-thiazolyl)-2,5-diphenyl 2H-tetrazolium bromide (MTT) cytotoxicity assays. NKNT-3 cells were plated in a 96-well microplate at 5×10^3 cells per well to obtain a growth curve. On days 1, 3, 5, and 7, MTT (20 μg/ml) was added to a different well, incubated for 4 h, and then reacted with 150 μl of isopropanol for 10 min. Relative percentage of viability was determined by the ratio of absorbance at 570 and 630 nm with Bio-Rad EIA reader (Bio-Rad, Richmond, Calif.).

[2] = system: tumors in SCID mice; assay: Tumor sensitivity to gancyclovir in tumor-bearing SCID mice; format: in vivo, mouse
Protocol: SCID mouse studies. The tumorigenicity of cell lines was assayed by subcutaneous injection of cells into the flanks of immunodeficient (SCID) mice. Cells were dislodged from monolayer culture with trypsin, washed, and suspended in PBS. SCID mice were inoculated subcutaneously with 1×10^6 cells per site. Animals were monitored every third day for the development of growth at the sites of injection. Animals were sacrificed at 24 weeks or when tumors reached 1 to 2 cm in diameter. Tumors were processed for routine histology and immunohistochemistry. To determine tumor sensitivity to treatment with gancyclovir, some animals were given a 0.2 ml intraperitoneal injection of gancyclovir (50 mg/kg) daily for 14 days when tumors reached 1-1.2 cm in size.

[3] = system: C8-B/Ras cells; assay: Soft agar assay, sensitivity of colonies to gancyclovir; format: cell-based, rat
Protocol: Soft agar assay. To assay the capacity for anchorage independent growth, 5×10^4 cells were suspended in 2 ml of 0.3% Difco agar in IM and gently overlaid onto 60 mm dishes containing a lower layer of 0.5% agar. Cultures were fed every 5 to 7 days with a small amount of media. After 20 days of growth at 37° C., the dishes were stained with 0.5 mg/ml p-iodonitrotetrazolium violet (Sigma Chemical Co., St. Louis, Mo.), and macroscopically visible colonies (>100 μm in diameter) were scored. HepG2 cells were used as a positive control.

SMILES | sensitivity of NKNT-3 cells to G418 ([1]; G418 500 μg/ml) | sensitivity of NKNT-3 cells to ganciclovir ([1]; 5 μM ganciclovir) | tumor recurrence ([2]; 4-week post-gancyclovir observation period) | tumor response by the end of gancyclovir treatment ([2]; gancyclovir 50 mg/kg, 14-day course) | time until tumors stopped growing ([2]; gancyclovir 50 mg/kg, 14-day course, tumors >1 cm) [days] | rare three-dimensional colonies after Ad-Cre infection, sensitivity to gancyclovir ([3]; C8-B/Ras cells after Ad-Cre infection) | C8-B/Ras soft agar colonies, sensitivity to gancyclovir ([3]; media containing 5 μM gancyclovir)
CN[C@@H]1[C@@H](O)[C@@H](O[C@@H]2[C@@H](O)[C@H](O[C@H]3O[C@H]([C@@H](C)O)[C@@H](O)[C@H](O)[C@H]3N)[C@@H](N)C[C@H]2N)OC[C@]1(C)O [G418] | confirmed |  |  |  |  |  | 
Nc1nc(O)c2ncn(COC(CO)CO)c2n1 [gancyclovir] |  | confirmed | no tumor recurrence | could no longer be identified clinically or histologically; also recorded: complete regression of established tumors | ≤ 5 | all were sensitive | could be eliminated
